Calls of active or inactive are those of the source.
How the values were obtained:
[1] = target: Voltage-dependent T-type calcium channel subunit alpha-1H (Homo sapiens, UniProt O95180); assay type: functional;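 also: channel activity triggered by adding a high calcium stimulation buffer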
[2] = target: Kallikrein-7 (Homo sapiens, UniProt P49862); assay: Fluorescence Intensity-based biochemical primary high throughput dose response assay to identify activators of kallikrein-7 (K7) zymogen.
[3] = target: Cytochrome P450 3A4 (Homo sapiens, UniProt P08684); conditions: Potency;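 also: confirmatory qHTS run detecting inhibitors and substrates of CYP3A4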
Chain of Cytochrome P450 3A4 (P08684 whole entry): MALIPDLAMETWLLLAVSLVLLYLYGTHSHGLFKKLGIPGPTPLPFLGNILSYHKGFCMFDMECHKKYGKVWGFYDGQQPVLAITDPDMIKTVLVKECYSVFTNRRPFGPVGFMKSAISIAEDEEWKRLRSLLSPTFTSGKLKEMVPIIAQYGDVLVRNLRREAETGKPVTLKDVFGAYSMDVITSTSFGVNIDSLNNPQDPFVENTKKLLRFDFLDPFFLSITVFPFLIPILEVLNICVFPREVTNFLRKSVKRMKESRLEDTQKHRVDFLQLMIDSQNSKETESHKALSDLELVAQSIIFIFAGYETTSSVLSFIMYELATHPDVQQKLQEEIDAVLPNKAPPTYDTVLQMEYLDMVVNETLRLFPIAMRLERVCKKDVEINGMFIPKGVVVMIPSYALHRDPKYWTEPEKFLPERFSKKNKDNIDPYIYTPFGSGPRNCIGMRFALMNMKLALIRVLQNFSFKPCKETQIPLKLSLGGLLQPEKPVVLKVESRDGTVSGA

[4] = target: T1, Corticotropin-releasing factor receptor 2/Corticotropin-releasing factor-binding protein (Homo sapiens, UniProt P24387+Q13324); assay: Dose Response confirmation of uHTS hits for small molecule antagonists of the CRF-binding protein and CRF-R2 receptor complex.; assay type: functional; conditions: read-out: IC50_Mean
T1 sequence (Q13324 whole entry): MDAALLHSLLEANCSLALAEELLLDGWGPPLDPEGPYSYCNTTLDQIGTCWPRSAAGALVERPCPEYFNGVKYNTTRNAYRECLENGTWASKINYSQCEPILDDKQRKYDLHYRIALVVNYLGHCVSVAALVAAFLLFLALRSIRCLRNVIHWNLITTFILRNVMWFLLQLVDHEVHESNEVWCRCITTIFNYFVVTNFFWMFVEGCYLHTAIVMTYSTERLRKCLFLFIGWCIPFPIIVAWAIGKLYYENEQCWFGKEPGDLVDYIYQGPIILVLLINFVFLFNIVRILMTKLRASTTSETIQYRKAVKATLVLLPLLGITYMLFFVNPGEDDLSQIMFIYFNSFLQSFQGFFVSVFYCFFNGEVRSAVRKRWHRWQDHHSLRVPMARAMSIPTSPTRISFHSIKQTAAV
T1 sequence (P24387 whole entry): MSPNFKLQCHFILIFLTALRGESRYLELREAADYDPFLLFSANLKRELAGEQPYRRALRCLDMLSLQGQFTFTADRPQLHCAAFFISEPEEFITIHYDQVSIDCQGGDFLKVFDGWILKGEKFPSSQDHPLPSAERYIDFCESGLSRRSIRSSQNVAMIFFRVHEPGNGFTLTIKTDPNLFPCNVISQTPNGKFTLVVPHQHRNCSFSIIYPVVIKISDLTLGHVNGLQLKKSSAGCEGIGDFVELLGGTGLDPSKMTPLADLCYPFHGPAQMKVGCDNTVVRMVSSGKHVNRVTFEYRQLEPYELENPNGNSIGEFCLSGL

[5] = target: T2, Aminopeptidase N (Plasmodium falciparum FcB1/Columbia, UniProt O96935); assay: malaria alanyl aminopeptidase activity blockers – biochemical, fluorogenic H-Leu-NHMec substrate, 1536-well (AID 1445); set-up: species or system Plasmodium falciparum 3D7, 3D7
T2 sequence (O96935 whole entry): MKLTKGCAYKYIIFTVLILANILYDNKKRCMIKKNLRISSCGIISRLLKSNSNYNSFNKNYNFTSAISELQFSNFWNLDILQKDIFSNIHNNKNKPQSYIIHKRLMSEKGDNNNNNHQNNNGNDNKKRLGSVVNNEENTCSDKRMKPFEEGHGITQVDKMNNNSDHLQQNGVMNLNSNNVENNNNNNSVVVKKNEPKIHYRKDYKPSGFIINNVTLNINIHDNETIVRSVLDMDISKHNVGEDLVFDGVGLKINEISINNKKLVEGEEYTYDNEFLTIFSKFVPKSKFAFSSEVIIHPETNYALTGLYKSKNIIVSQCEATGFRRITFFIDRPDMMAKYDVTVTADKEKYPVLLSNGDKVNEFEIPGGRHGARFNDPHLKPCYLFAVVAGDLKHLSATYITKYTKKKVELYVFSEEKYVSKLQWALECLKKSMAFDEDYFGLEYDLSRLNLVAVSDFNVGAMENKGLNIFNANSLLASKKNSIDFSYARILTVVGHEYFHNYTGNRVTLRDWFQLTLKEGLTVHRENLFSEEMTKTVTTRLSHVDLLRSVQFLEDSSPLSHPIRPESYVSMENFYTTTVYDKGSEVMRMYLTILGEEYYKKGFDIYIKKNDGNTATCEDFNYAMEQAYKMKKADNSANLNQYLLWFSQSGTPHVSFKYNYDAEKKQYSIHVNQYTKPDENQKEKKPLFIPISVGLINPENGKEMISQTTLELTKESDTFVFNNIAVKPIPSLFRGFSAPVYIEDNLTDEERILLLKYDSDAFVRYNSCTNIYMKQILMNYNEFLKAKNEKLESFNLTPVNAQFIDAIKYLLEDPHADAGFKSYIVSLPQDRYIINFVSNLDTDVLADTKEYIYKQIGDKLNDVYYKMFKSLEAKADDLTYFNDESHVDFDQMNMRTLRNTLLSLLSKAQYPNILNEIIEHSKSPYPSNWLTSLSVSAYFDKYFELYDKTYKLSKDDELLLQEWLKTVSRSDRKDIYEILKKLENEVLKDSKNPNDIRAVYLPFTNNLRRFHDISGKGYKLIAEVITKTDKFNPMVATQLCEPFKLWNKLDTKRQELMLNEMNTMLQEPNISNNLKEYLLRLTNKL

[6] = target: T1, Corticotropin-releasing factor receptor 2/Corticotropin-releasing factor-binding protein; assay: activators of CRF receptor 2 with binding protein – uHTS hits, confirmation (AID 602473); assay type: functional; conditions: read-out: EC50_Mean
[7] = A cytotoxicity screen of small molecule inhibitors of the PhoP region in Salmonella typhi identified in the primary screen. [Related pubchem assays: 1850, 1864, 1985 ]; assay type: functional
[8] = non-specific 3'UTR reporter inhibition in Clone20-Shn3RL – cell-based, Renilla luciferase, cherry-picked, counter-screen for Shn3 inhibitor project, dose response (AID 624133); assay type: functional
[9] = reduction of Shn3 3'UTR-driven luciferase in osteoblasts – cell-based, Clone20 osteoblasts, firefly luciferase, cherry-picked, dose response (AID 624132); assay type: functional;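 also: firefly luciferase luminescence from reporter carrying the Shn3 3'UTR in osteoblasts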
[10] = loss of viability in HepG2 cells – cell-based, CellTiter-Glo, cherry-picked, cytotoxicity control for Shn3 inhibitor project, dose response (AID 624134); assay type: functional
[11] = test system: Streptococcus; assay: GAS UMAA2166 growth inhibition – luminescence, BacTiterGlo, counter-screen for streptokinase expression inhibitor project, dose response (AID 1915); assay type: functional, organism-based;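 also: potency for reduction of bacterial viability or growth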
[12] = test system: Streptococcus sp. 'group A'; assay: Streptococcus pyogenes SK(-)GAS viability under kanamycin – luminescence, BacTiterGlo, confirmation, counter-screen for streptokinase expression inhibitor project, dose response (AID 1900); assay type: functional, organism-based
[13] = target: T3, Short transient receptor potential channel 4 (Mus musculus, UniProt Q9QUQ5); assay: calcium entry via TRPC4 opening agents – cell-based, HEK293 TRPC4/mu-opioid, Fluo-4 calcium, dose response (AID 434937); assay type: functional
T3 sequence (Q9QUQ5 whole entry): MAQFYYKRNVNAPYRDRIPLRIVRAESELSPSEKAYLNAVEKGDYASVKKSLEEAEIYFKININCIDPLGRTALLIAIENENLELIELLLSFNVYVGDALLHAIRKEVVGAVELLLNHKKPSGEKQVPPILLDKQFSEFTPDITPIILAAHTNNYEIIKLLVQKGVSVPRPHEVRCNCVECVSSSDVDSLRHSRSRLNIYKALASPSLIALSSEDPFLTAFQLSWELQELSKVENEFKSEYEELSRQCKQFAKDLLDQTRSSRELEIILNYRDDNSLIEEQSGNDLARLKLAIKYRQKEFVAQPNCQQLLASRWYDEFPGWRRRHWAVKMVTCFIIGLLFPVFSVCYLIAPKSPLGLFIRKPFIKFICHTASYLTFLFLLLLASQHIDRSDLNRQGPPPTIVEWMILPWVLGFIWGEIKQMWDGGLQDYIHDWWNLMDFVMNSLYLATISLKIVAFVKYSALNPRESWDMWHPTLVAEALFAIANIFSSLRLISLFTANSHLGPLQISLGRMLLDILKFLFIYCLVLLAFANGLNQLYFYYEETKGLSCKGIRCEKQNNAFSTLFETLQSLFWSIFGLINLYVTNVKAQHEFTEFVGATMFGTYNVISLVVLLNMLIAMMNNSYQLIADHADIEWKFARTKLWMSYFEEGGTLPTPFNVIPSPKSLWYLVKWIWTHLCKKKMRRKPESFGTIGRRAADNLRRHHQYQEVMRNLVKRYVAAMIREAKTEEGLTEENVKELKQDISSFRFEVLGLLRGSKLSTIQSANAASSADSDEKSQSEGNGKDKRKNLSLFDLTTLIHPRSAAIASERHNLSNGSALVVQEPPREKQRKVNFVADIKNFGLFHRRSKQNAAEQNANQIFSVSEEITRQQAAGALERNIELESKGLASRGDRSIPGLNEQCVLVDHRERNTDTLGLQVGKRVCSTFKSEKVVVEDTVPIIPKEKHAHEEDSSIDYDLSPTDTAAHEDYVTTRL

Chain of Kallikrein-7 (P49862 whole entry): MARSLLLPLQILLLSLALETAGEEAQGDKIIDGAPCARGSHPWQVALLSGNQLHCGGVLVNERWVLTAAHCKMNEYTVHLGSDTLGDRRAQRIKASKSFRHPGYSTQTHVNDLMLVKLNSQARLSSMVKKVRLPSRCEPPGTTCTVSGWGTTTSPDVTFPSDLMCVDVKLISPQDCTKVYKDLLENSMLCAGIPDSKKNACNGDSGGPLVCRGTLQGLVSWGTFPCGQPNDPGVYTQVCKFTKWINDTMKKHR
Chain of Voltage-dependent T-type calcium channel subunit alpha-1H (O95180 whole entry): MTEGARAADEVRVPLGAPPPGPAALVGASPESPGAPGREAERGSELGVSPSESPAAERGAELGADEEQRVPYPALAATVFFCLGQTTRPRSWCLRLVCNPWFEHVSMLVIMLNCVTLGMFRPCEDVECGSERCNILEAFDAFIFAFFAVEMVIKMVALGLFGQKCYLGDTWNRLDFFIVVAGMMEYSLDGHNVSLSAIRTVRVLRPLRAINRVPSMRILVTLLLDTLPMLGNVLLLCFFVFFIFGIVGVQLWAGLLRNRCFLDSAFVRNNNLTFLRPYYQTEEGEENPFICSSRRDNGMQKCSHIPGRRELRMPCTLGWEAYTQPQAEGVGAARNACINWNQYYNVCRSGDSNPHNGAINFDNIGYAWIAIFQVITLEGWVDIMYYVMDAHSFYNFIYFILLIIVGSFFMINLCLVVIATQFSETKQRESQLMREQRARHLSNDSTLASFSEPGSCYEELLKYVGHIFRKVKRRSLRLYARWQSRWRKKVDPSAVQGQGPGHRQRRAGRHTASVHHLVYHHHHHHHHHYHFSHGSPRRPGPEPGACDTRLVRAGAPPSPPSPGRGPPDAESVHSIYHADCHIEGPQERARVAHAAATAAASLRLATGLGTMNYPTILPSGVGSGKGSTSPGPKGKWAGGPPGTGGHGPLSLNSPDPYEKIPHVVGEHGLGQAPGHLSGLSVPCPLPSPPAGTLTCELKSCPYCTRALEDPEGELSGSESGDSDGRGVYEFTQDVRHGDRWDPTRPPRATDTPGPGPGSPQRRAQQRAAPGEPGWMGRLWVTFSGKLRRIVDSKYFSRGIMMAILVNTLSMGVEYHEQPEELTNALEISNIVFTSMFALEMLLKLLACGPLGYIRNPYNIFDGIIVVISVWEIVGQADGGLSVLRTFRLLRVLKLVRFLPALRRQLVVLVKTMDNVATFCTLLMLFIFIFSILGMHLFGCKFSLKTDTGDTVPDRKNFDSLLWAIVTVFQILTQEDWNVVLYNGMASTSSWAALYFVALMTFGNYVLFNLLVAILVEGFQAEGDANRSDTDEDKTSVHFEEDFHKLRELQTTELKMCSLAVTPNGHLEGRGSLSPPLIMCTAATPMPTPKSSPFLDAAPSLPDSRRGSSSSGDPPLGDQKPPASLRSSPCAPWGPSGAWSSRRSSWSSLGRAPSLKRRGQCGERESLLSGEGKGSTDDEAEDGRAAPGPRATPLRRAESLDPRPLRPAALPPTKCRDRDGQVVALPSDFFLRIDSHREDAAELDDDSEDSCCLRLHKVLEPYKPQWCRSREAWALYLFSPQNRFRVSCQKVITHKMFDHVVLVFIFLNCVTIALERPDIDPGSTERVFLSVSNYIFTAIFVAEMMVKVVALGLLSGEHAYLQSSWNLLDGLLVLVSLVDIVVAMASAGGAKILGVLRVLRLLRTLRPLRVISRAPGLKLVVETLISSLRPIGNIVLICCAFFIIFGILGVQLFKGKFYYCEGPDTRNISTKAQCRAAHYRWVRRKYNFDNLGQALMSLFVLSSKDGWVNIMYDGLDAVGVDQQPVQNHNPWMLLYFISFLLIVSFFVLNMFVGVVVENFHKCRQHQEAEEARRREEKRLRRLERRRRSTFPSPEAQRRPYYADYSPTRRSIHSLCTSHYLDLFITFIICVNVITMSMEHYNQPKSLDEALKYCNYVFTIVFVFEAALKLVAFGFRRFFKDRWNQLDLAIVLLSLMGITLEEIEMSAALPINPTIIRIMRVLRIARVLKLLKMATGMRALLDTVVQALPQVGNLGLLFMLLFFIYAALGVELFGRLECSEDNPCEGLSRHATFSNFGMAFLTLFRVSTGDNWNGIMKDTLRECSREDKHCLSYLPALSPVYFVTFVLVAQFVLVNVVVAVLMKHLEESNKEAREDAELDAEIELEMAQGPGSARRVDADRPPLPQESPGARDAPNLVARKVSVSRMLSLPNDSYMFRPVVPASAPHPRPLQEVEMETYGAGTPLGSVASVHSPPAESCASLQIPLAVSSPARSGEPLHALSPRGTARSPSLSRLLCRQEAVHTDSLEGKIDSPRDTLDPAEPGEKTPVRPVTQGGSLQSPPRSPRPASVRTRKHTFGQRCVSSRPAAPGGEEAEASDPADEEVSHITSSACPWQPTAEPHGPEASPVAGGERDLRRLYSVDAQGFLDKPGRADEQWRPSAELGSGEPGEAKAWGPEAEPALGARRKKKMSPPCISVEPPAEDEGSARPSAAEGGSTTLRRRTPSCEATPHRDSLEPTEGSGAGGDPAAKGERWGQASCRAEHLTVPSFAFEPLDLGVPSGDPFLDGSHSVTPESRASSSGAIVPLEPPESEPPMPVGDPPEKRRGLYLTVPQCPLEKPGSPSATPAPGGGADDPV

Cc1ccc(-n2c(Cc3cccn3C)nnc2SCC(=O)Nc2ccc3c(c2)OCO3)cc1
EC50 [1]: 1.25 µM (active)

CCCC(=O)Nc1c(-c2ccc(OC)cc2)c(=O)c2ccccc2n1C
EC50 [2]: 49.5 µM (inactive)

CCCCCCN(C(=O)CCCCCN1C(=O)NC(c2ccc(-c3ccccc3)cc2)C(C(=O)OCc2ccccc2)=C1C)C(C(=O)NCCCC)c1cccc(C(=O)OC)c1 (configuration not stated)
AC50 [3]: 2.51 µM (inconclusive)

CC(=O)c1ccc(-c2cccs2)s1
IC50 [4]: > 47.1 µM (inactive) | IC50 [5]: 40 µM (active) | EC50 [6]: > 53 µM (inactive)

C=CCCCCCCCCCCC/C=C/C(O)COC(C)=O (configuration not stated) [DEHYDROAVOCATIN-1-ACETATE]
AC50 [3]: 39.8 µM (inconclusive)

C[C@@H]1O[C@@H](O[C@@H]2[C@@H](O)[C@H](OCCc3ccc(O)c(O)c3)O[C@H](CO[C@@H]3O[C@H](CO)[C@@H](O)[C@H](O)[C@H]3O)[C@H]2OC(=O)/C=C/c2ccc(O)c(O)c2)[C@H](O)[C@H](O)[C@H]1O
AC50 [3]: 7.94 µM (inconclusive)

CC1(C(=O)NCCN2CCOCC2)C=CCN1C(=O)c1ccccc1 (configuration not stated)
AC50 [3]: 25.1 µM (inconclusive)

CCOC(=O)C1CCN(c2[nH]cnc3c4c(OC)cccc4nc2-3)CC1
EC50 [2]: 8.33 µM (active)

c1ccc2sc(N3CN(CCN4CCOCC4)CN(c4nc5ccccc5s4)C3)nc2c1
EC50 [7]: > 50 µM (active) | EC50 [1]: 5.23 µM (active)

CCC(CC)CC1CN2CCc3cc(OC)c(OC)cc3C2CC1(O)CC (configuration not stated)
EC50 [2]: 8.32 µM (active) | AC50 [8]: 3.89 µM (active) | AC50 [9]: 2 µM (active) | AC50 [10]: > 70 µM (inactive)

CSCc1nnc(NC(=O)c2ccc(S(=O)(=O)N(CC(C)C)CC(C)C)cc2)o1
EC50 [11]: 2.51 µM (active) | EC50 [12]: 1.01 µM (active) | EC50 [1]: 3.07 µM (active)

Cc1onc(-c2c(F)cccc2Cl)c1C(=O)N1CCN(c2ncc(Br)cn2)CC1
IC50 [4]: > 47.1 µM (inactive) | EC50 [6]: > 53 µM (inactive) | EC50 [13]: 4.73 µM (active)

Reference: ChEMBL document CHEMBL1201862, “PubChem BioAssay data set” (2004)
